According to patent US20090170917A1, “Acid Mimic Compounds for the Inhibition of Isoprenyl-S-Cysteinyl Methyltransferase” (priority 2007, published 2009):

Columns and labels:
[1] = target: membrane-associated isoprenyl-5-cysteinyl methyltransferase (Homo sapiens, UniProt O60725); conditions: background statement; cited from earlier work
[2] = tested on: neutrophil, macrophage, and platelet responses; conditions: in vitro, background statement; cited from earlier work
[3] = tested on: dermal inflammation; conditions: mice, background statement; cited from earlier work
[4] = tested on: TPA-treated mouse ears (edema); test: Mouse ear model of TPA-induced contact inflammation: edema inhibition (ear thickness); format: in vivo; conditions: for edema inhibition (statement in words): in vivo activity, no dose stated; for % Inhibition Edema: TPA-treated mouse ear, 24 hours
From the text: (§1) G. et al., Anti-inflammatory Drugs, Clin. Pharmacol. Ther. 16, 900-4 (1974); Young et al., Tachyphylaxis in 12-Otetradecanoylphorbolacetate-and Arachidonic Acid-Induced Ear Edema; J. Invest. Dermatol. 80:48-52, (1983); Tramposch et al., In Vivo Models of Inflammation, (Morgan D W, Marshall L A eds), Birkhaüser Verlag: Basel, pp 179-204, 1999; and Gordon et al., Topical N-Acetyl-S-Farnesyl-L-Cysteine Inhibits Mouse Skin Inflammation, and Unlike Dexamethasone, Its Effects Are Restricted to the Application Site, J. Invest. Dermatol., 128(3):643-54, 2008 March)]. Moreover, the mouse ear model has been used by various groups to identify and compare members of differing classes of anti-inflammatory agents with multiple mechanisms of action (reviewed in Tramposch et al., 1999, supra).
The protocol for inducing in vivo acute contact inflammation on the ears of live mice has been described elsewhere (reviewed in Tramposch, 1999, supra). In brief, mice were sedated and their ears were treated with 1.2 μg/20 uL TPA (i.e., tetradecanoylphorbol-13-acetate). […] After 24 hours, the mice were sacrificed and edema was measured by taking micrometer readings of each ear. The percent inhibition of edema was determined by taking the average ear thickness of compound-treated ears and dividing it by the average thickness of 12 ears that only received TPA and subtracting that value from 100%. These values were corrected for the thickness of normal, non TPA-treated mouse ears of littermate controls. […] ED50 values were calculated as described in Gordon et al., “Topical N-acetyl-5-farnesyl-L-cysteine Inhibits Mouse Skin Inflammation, and Unlike Dexamethasone, its Effects Are Restricted to the Application Site”, J. Invest. Derm., Vol. 128 pp. 643-654 (2008).

[5] = tested on: dermal neutrophil infiltration, neutrophil marker myeloperoxidase (MPO); test: Mouse ear model of TPA-induced contact inflammation: MPO inhibition (dermal neutrophil infiltration); format: in vivo; conditions: for MPO (myeloperoxidase) inhibition (statement in words): in vivo activity, no dose stated; for % Inhibition MPO: TPA-treated mouse ear, 24 hours
From the text: as §1
To assay for inhibition of dermal neutrophil infiltration by S-isoprenyl and S-farnesyl cysteine compounds, a standard method was used (see Bradley et al., 1982, supra; Young et al., 1983, supra; De Young et al, “Edema and Cell Infiltration in the Phorbol Ester-treated Mouse Ear are Temporally Separate and can be Differentially Modulated by Pharmacologic Agents”, Agents Actions, 26(3-4): 335-41 (March 1989); and Rao et al. (1993) Comparative Evaluation of Arachidonic Acid (AA)-and Tetradecanoylphorbol Acetate (TPA)-Induced Dermal Inflammation, Inflammation 17:723-41). Briefly, we homogenized 6 mm biopsy punches taken from both compound-treated ears as well as TPA-treated and non-treated control groups. We quantitated the levels of MPO by a calorimetric reaction that was measured spectrophotometrically. The percent inhibition of neutrophil infiltration by each S-isoprenyl and S-farnesyl cysteine compound was determined by comparing the average MPO levels in the presence and absence of these compounds. […] Gordon et al., “Topical N-acetyl-5-farnesyl-L-cysteine Inhibits Mouse Skin Inflammation, and Unlike Dexamethasone, its Effects Are Restricted to the Application Site”, J. Invest. Derm., Vol. 128 pp. 643-654 (2008).

[6] = tested on: TPA-treated mouse ears (erythema); test: Mouse ear model of TPA-induced contact inflammation: erythema inhibition (Δa* redness, chroma meter); format: in vivo; conditions: for erythema inhibition (statement in words): in vivo activity, no dose stated; for % Inhibition Erythema: TPA-treated mouse ear, 24 hours
From the text: as §1
Another well documented biomarker of skin inflammation is skin redness, termed erythema, which is caused by capillary congestion and dilation in response to various chemical and environmental insults (see Denig, N. I. et al., Irritant Contact Dermatitis. Clues to Causes, Clinical Characteristics, and Control, Postgrad Med., May (1998); 103(5):199-200, 207-8, 212-3). […] The percent inhibition of erythema was determined by taking the average Δa* redness value of compound-treated ears and dividing it by the average Δa* value of 12 ears that only received TPA and subtracting that value from 100%. These values were corrected for the Δa* value of non TPA-treated mouse ears of littermate controls. […] Gordon et al., “Topical N-acetyl-5-farnesyl-L-cysteine Inhibits Mouse Skin Inflammation, and Unlike Dexamethasone, its Effects Are Restricted to the Application Site”, J. Invest. Derm., Vol. 128 pp. 643-654 (2008).

Chain of membrane-associated isoprenyl-5-cysteinyl methyltransferase (O60725 whole entry): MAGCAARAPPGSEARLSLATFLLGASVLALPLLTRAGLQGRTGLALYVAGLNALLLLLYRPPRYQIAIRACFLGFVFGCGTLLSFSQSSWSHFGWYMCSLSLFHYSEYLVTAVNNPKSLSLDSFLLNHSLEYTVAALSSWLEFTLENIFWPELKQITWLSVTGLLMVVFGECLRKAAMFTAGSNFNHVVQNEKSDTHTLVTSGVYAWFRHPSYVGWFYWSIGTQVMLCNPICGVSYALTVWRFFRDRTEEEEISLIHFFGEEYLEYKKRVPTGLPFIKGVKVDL

Structure (SMILES): CC(=O)N[C@@H](CSCC=C(C)CCC=C(C)CCC=C(C)C)C(=O)O [AFC, N-acetyl-5-farnesyl-L-cysteine]
- inhibition of isoprenyl-S-cysteinyl methyltransferase (mode) [1]: competitive inhibitor
- block of neutrophil, macrophage and platelet responses [2]: block some neutrophil, macrophage, and platelet responses in vitro
- reduction of dermal inflammation [3]: effectively reduces dermal inflammation in mice

Structure (SMILES): CC(=O)N[C@@H](CSC/C=C(\C)CC/C=C(\C)CCC=C(C)C)C(=O)NN [Compound A]
- edema inhibition (statement in words) [4]: edema inhibition
- % Inhibition Edema ([4]; topical dose 0.8 mg/20 μL): — 42.36 ± 1.99%
- MPO (myeloperoxidase) inhibition (statement in words) [5]: MPO (myeloperoxidase) inhibition
- % Inhibition MPO ([5]; topical dose 0.8 mg/20 μL): — 93.53 ± 1.13%
- erythema inhibition (statement in words) [6]: erythema inhibition

Structure (SMILES): CC(=O)N[C@@H](CSC/C=C(\C)CC/C=C(\C)CCC=C(C)C)C(=O)NO [Compound B]
- edema inhibition (statement in words) [4]: edema inhibition
- % Inhibition Edema ([4]; topical dose 0.8 mg/20 μL): — 33.64 ± 3.03%
- MPO (myeloperoxidase) inhibition (statement in words) [5]: MPO (myeloperoxidase) inhibition
- % Inhibition MPO ([5]; topical dose 0.8 mg/20 μL): — 87.45 ± 1.37%
- erythema inhibition (statement in words) [6]: erythema inhibition

Structure (SMILES): CC(=O)N[C@@H](CSC/C=C(\C)CC/C=C(\C)CCC=C(C)C)C(=O)NNc1ccccc1 [Compound C]
- edema inhibition (statement in words) [4]: edema inhibition
- MPO (myeloperoxidase) inhibition (statement in words) [5]: MPO (myeloperoxidase) inhibition
- erythema inhibition (statement in words) [6]: erythema inhibition
- % Inhibition Erythema ([6]; topical dose 0.8 mg/20 μL): — 13.41 ± 11.92%

Structure (SMILES): CC(=O)NNC(=O)[C@H](CSC/C=C(\C)CC/C=C(\C)CCC=C(C)C)NC(C)=O [Compound D]
- MPO (myeloperoxidase) inhibition (statement in words) [5]: MPO (myeloperoxidase) inhibition
- erythema inhibition (statement in words) [6]: erythema inhibition

Structure (SMILES): CNNC(=O)[C@H](CSC/C=C(\C)CC/C=C(\C)CCC=C(C)C)NC(C)=O [Compound E]
- edema inhibition (statement in words) [4]: edema inhibition
- % Inhibition Edema ([4]; topical dose 0.8 mg/20 μL): — 5.85 ± 7.02%
- MPO (myeloperoxidase) inhibition (statement in words) [5]: MPO (myeloperoxidase) inhibition
- erythema inhibition (statement in words) [6]: erythema inhibition
- % Inhibition Erythema ([6]; topical dose 0.8 mg/20 μL): — 7.68 ± 8.15%

Structure (SMILES): CC(C)=CCC/C(C)=C/CC/C(C)=C/CSC[C@H](NC(=O)CCC(F)(F)F)C(=O)NN [Compound F]
- edema inhibition (statement in words) [4]: edema inhibition
- % Inhibition Edema ([4]; topical dose 0.2 mg/20 μL): 7.86 ± 0.98 — %
- MPO (myeloperoxidase) inhibition (statement in words) [5]: MPO (myeloperoxidase) inhibition
- % Inhibition MPO ([5]; topical dose 0.2 mg/20 μL): 21.33 ± 12.68 — %
- erythema inhibition (statement in words) [6]: erythema inhibition
- % Inhibition Erythema ([6]; topical dose 0.2 mg/20 μL): 11.04 ± 7.28 — %
